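Interpolation was linear, between the two tested concentrations surrounding the appropriate level; five concentrations were tested over 48 hours in 96-well plates. GI50 = concentration required for 50% inhibition of growth.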 Activity calls are given as the source filed them. Rule as the data show it: active = GI50 up to about 1.1 µM and inactive = higher.
Experiments:
Test in all cases: growth of human tumour cells (NCI), 48 h
IGROV-1 = test system: IGROV-1
HT-29 = test system: HT-29
UO-31 = test system: UO-31
SNB-75 = test system: SNB-75
MCF7 = test system: MCF7
MDA-MB-231 = test system: MDA-MB-231
NCI-H460 = test system: NCI-H460
SF-539 = test system: SF-539
SK-MEL-5 = test system: SK-MEL-5
RXF 393 = test system: RXF 393
HCC 2998 = test system: HCC 2998
MDA-N = test system: MDA-N
SR = test system: SR
CAKI-1 = test system: CAKI-1
K562 = test system: K562
HCT-116 = test system: HCT-116
BT-549 = test system: BT-549
SK-MEL-28 = test system: SK-MEL-28
RPMI-8226 = test system: RPMI-8226
Hs-578T = test system: Hs-578T

C=CCN1C(=O)/C(=C/c2ccc(C)cc2)NC1=S
GI50 (IGROV-1): > 100 µM (inactive)
GI50 (HT-29): 96.6 µM (inactive)
GI50 (UO-31): > 100 µM (inactive)
GI50 (SNB-75): > 100 µM (inactive)
GI50 (MCF7): 70.6 µM (inactive)
GI50 (MDA-MB-231): 60.1 µM (inactive)
GI50 (NCI-H460): > 100 µM (inactive)
GI50 (SF-539): > 100 µM (inactive)
GI50 (SK-MEL-5): 39.6 µM (inactive)
GI50 (RXF 393): > 100 µM (inactive)
GI50 (HCC 2998): > 100 µM (inactive)
GI50 (MDA-N): 94.8 µM (inactive)
GI50 (SR): 85.9 µM (inactive)
GI50 (CAKI-1): > 100 µM (inactive)
GI50 (K562): 41.9 µM (inactive)
GI50 (HCT-116): > 100 µM (inactive)
GI50 (BT-549): > 100 µM (inactive)
GI50 (SK-MEL-28): > 100 µM (inactive)
GI50 (RPMI-8226): 39.4 µM (inactive)
GI50 (Hs-578T): > 100 µM (inactive)

Nc1nc(Cl)cc(NCC2(CO)COC2)n1
GI50 (IGROV-1): > 100 µM (inactive)
GI50 (HT-29): > 100 µM (inactive)
GI50 (UO-31): > 100 µM (inactive)
GI50 (SNB-75): > 100 µM (inactive)
GI50 (MCF7): > 100 µM (inactive)
GI50 (MDA-MB-231): > 100 µM (inactive)
GI50 (NCI-H460): > 100 µM (inactive)
GI50 (SF-539): > 100 µM (inactive)
GI50 (SK-MEL-5): > 100 µM (inactive)
GI50 (RXF 393): > 100 µM (inactive)
GI50 (HCC 2998): > 100 µM (inactive)
GI50 (MDA-N): > 100 µM (inactive)
GI50 (SR): > 100 µM (inactive)
GI50 (CAKI-1): > 100 µM (inactive)
GI50 (K562): > 100 µM (inactive)
GI50 (HCT-116): > 100 µM (inactive)
GI50 (BT-549): > 100 µM (inactive)
GI50 (SK-MEL-28): > 100 µM (inactive)
GI50 (RPMI-8226): > 100 µM (inactive)
GI50 (Hs-578T): > 100 µM (inactive)

COC(=O)C(NC(=O)CNC(=O)CSc1nnc(COc2ccc(Cl)cc2)n1-c1ccccc1)C(C)C (stereo not given)
GI50 (IGROV-1): 18.8 µM (inactive)
GI50 (HT-29): 17.7 µM (inactive)
GI50 (UO-31): 17.8 µM (inactive)
GI50 (SNB-75): 21.3 µM (inactive)
GI50 (MCF7): 16.1 µM (inactive)
GI50 (MDA-MB-231): 18.5 µM (inactive)
GI50 (NCI-H460): 18.8 µM (inactive)
GI50 (SF-539): 17.1 µM (inactive)
GI50 (SK-MEL-5): 16.2 µM (inactive)
GI50 (RXF 393): 18.1 µM (inactive)
GI50 (HCC 2998): 18.5 µM (inactive)
GI50 (MDA-N): 21.6 µM (inactive)
GI50 (SR): 11.1 µM (inactive)
GI50 (CAKI-1): 14.7 µM (inactive)
GI50 (K562): 33.3 µM (inactive)
GI50 (HCT-116): 16.2 µM (inactive)
GI50 (BT-549): 18.5 µM (inactive)
GI50 (SK-MEL-28): 16.7 µM (inactive)
GI50 (RPMI-8226): 20.4 µM (inactive)
GI50 (Hs-578T): 22.9 µM (inactive)

CCC(C)OC(=O)/C(Br)=C1/OC(=O)c2ccccc2-c2ccccc21 (stereo not given)
GI50 (IGROV-1): > 10 µM (inactive)
GI50 (HT-29): 23.2 µM (inactive)
GI50 (UO-31): 25.2 µM (inactive)
GI50 (SNB-75): 31.6 µM (inactive)
GI50 (MCF7): 41 µM (inactive)
GI50 (MDA-MB-231): > 10 µM (inactive)
GI50 (NCI-H460): 26.2 µM (inactive)
GI50 (SF-539): 24 µM (inactive)
GI50 (SK-MEL-5): 21.2 µM (inactive)
GI50 (RXF 393): 9.75 µM (inactive)
GI50 (HCC 2998): 16.9 µM (inactive)
GI50 (MDA-N): 32.6 µM (inactive)
GI50 (SR): > 10 µM (inactive)
GI50 (CAKI-1): 43.4 µM (inactive)
GI50 (K562): 4.42 µM (inactive)
GI50 (HCT-116): 17.6 µM (inactive)
GI50 (BT-549): 18.8 µM (inactive)
GI50 (SK-MEL-28): 30.1 µM (inactive)
GI50 (RPMI-8226): 22.3 µM (inactive)
GI50 (Hs-578T): 45.4 µM (inactive)

CN(C)Cc1cc(C(=O)/C=C/c2cccc(Cl)c2)cc(CN(C)C)c1O
GI50 (IGROV-1): 3.27 µM (inactive)
GI50 (HT-29): 4.18 µM (inactive)
GI50 (UO-31): 5.78 µM (inactive)
GI50 (SNB-75): 1.95 µM (inactive)
GI50 (MCF7): 4.44 µM (inactive)
GI50 (MDA-MB-231): 2.75 µM (inactive)
GI50 (NCI-H460): 3.05 µM (inactive)
GI50 (SF-539): 6.14 µM (inactive)
GI50 (SK-MEL-5): 2.41 µM (inactive)
GI50 (RXF 393): 7.05 µM (inactive)
GI50 (HCC 2998): 10.6 µM (inactive)
GI50 (MDA-N): 3.1 µM (inactive)
GI50 (SR): 2.28 µM (inactive)
GI50 (CAKI-1): 1.68 µM (inactive)
GI50 (K562): 2.91 µM (inactive)
GI50 (HCT-116): 3.21 µM (inactive)
GI50 (BT-549): 9.64 µM (inactive)
GI50 (SK-MEL-28): 4.16 µM (inactive)
GI50 (RPMI-8226): 2.69 µM (inactive)
GI50 (Hs-578T): 11.4 µM (inactive)

CC(O)C1(CNc2cc(Cl)nc(N)n2)CCCC1 (stereo not given)
GI50 (IGROV-1): > 100 µM (inactive)
GI50 (HT-29): > 100 µM (inactive)
GI50 (UO-31): > 100 µM (inactive)
GI50 (SNB-75): 71 µM (inactive)
GI50 (MCF7): > 100 µM (inactive)
GI50 (MDA-MB-231): > 100 µM (inactive)
GI50 (NCI-H460): > 100 µM (inactive)
GI50 (SF-539): > 100 µM (inactive)
GI50 (SK-MEL-5): > 100 µM (inactive)
GI50 (RXF 393): > 100 µM (inactive)
GI50 (HCC 2998): 23.4 µM (inactive)
GI50 (MDA-N): > 100 µM (inactive)
GI50 (SR): > 100 µM (inactive)
GI50 (CAKI-1): > 100 µM (inactive)
GI50 (K562): > 100 µM (inactive)
GI50 (HCT-116): > 100 µM (inactive)
GI50 (BT-549): > 100 µM (inactive)
GI50 (SK-MEL-28): > 100 µM (inactive)
GI50 (RPMI-8226): > 100 µM (inactive)
GI50 (Hs-578T): > 100 µM (inactive)

CCC1(OC(=O)CNC)C(=O)OCc2c1cc1n(c2=O)Cc2cc3ccccc3nc2-1 (stereo not given)
GI50 (IGROV-1): 0.0601 µM (active)
GI50 (HT-29): 0.0335 µM (active)
GI50 (UO-31): < 0.0125 µM (active)
GI50 (SNB-75): < 0.0104 µM (active)
GI50 (MCF7): < 0.01 µM (active)
GI50 (MDA-MB-231): 0.31 µM (active)
GI50 (NCI-H460): < 0.01 µM (active)
GI50 (SF-539): < 0.01 µM (active)
GI50 (SK-MEL-5): < 0.0125 µM (active)
GI50 (RXF 393): 0.0185 µM (active)
GI50 (HCC 2998): 0.204 µM (active)
GI50 (MDA-N): 0.0419 µM (active)
GI50 (SR): < 0.01 µM (active)
GI50 (CAKI-1): < 0.01 µM (active)
GI50 (K562): 0.0303 µM (active)
GI50 (HCT-116): 0.015 µM (active)
GI50 (BT-549): 0.0594 µM (active)
GI50 (SK-MEL-28): 0.213 µM (active)
GI50 (RPMI-8226): < 0.0137 µM (active)
GI50 (Hs-578T): 0.403 µM (active)

CC(C)(C)C#CI1OC(=O)c2ccccc21
GI50 (IGROV-1): 3.47 µM (inactive)
GI50 (HT-29): 4.16 µM (inactive)
GI50 (UO-31): 4.41 µM (inactive)
GI50 (SNB-75): 7.28 µM (inactive)
GI50 (MCF7): 4.03 µM (inactive)
GI50 (MDA-MB-231): 5.94 µM (inactive)
GI50 (NCI-H460): 4.62 µM (inactive)
GI50 (SF-539): 2.82 µM (inactive)
GI50 (SK-MEL-5): 6.08 µM (inactive)
GI50 (RXF 393): 3.62 µM (inactive)
GI50 (HCC 2998): 9.53 µM (inactive)
GI50 (MDA-N): 4.17 µM (inactive)
GI50 (SR): 0.74 µM (active)
GI50 (CAKI-1): 3.11 µM (inactive)
GI50 (K562): 1.91 µM (inactive)
GI50 (HCT-116): 2.48 µM (inactive)
GI50 (BT-549): 3.16 µM (inactive)
GI50 (SK-MEL-28): 4.34 µM (inactive)
GI50 (RPMI-8226): 1.81 µM (inactive)
GI50 (Hs-578T): 8.75 µM (inactive)

Reference: ChEMBL document CHEMBL1201862, “PubChem BioAssay data set” (2004)
